Active and inactive are the calls of the source. The rule behind the calls is not given here.

The results in this text go back to PubChem BioAssay AID608 (Sanford-Burnham Center for Chemical Genomics, 2007).

In this assay the target is Peptidyl-prolyl cis-trans isomerase FKBP1A (Homo sapiens) (UniProt P62942). Briefly: FKBP12 binders, biophysical, NMR detection (AID 608). Particulars: NMR binding, purified FKBP12.
Sequence of Peptidyl-prolyl cis-trans isomerase FKBP1A (Homo sapiens) (P62942 whole entry, looked up): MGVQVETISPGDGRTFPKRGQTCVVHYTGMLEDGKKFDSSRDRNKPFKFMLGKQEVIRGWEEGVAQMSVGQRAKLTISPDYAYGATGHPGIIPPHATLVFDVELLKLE
As for `C/C(N)=C/C(=O)N1CCCCC1`, the Kd is > 4 mM (inactive).

As to `COc1cccc(-c2nc(-c3ccccn3)no2)c1OC`, the Kd was > 4 mM (inactive).

As for `Cc1ccc(NS(=O)(=O)N2CCCCC2)cc1`, the Kd is 0.425 mM.

In the case of `Cc1ccc(CO)o1`, the Kd is > 4 mM (inactive). For `CC(=O)Nc1c(Cl)cnn(-c2ccccc2)c1=O` the value was > 4 mM (inactive). The same measure for `Cc1nc2ccc(F)cc2cc1C(=O)NCc1ccco1`: > 4 mM (inactive). For `c1ccc(Cc2nnc3sc(-c4ccncc4)nn23)cc1` the value was > 4 mM (inactive); for `NC1=NCc2ccccc21`, > 4 mM (inactive); for `CN=C(C)c1c(O)n(C)c(=S)n(C)c1=O`, > 4 mM (inactive). `Cc1nn(-c2ccccc2)nc1C(=O)O`: the Kd is > 4 mM (inactive). The same measure for `Cc1ccc(NS(=O)(=O)N2CCOCC2)c(C)c1`: > 4 mM (inactive).

As to `CC(=O)c1cccc(NC(=O)N2CCc3ccccc3C2)c1`, the Kd is > 4 mM (inactive). The same measure for `CN(C)c1ccc(N2C(=O)CCC2=O)cc1`: > 4 mM (inactive); for `CN1C(=O)C2C=CC1C1C(=O)N(c3ccccc3)C(=O)C21` (configuration not stated): > 4 mM (inactive); for `Cn1ncc(CO)c1-c1ccccc1`: > 4 mM (inactive). The same measure for `O=c1[nH]c(CN2CCN(CCO)CC2)nc2ccccc12`: > 4 mM (inactive); for `COc1cccc(-c2csc(NC(C)=O)n2)c1`: > 4 mM (inactive); for `O=C(c1ccccc1-c1ccccc1)N1CCOCC1`: > 4 mM (inactive). For `CC(=O)NS(=O)(=O)c1ccc(C)cc1` the value was > 4 mM (inactive); for `Oc1cc2c(cc1O)C1c3ccc(O)c(O)c3OCC1(O)C2` (configuration not stated), > 4 mM (inactive); for `CC1(C)NC(=O)N(CN2CCOCC2)C1=O`, > 4 mM (inactive). Consider `O=C(O)CCn1c(=O)oc2ccccc21`, for which the Kd is > 4 mM (inactive).

For `Cn1c(=O)c2ccccc2n(Cc2ccccc2F)c1=O`, the Kd was > 4 mM (inactive). For `CCOC(=O)c1cc(C)n(-n2cnnc2)c1C` the value was > 4 mM (inactive); for `O=C(CSc1ncccn1)Nc1nccs1`, > 4 mM (inactive); for `CCOC(=O)c1ccc(F)c(F)c1`, > 4 mM (inactive). The same measure for `Cc1cc(C(=O)O)n[nH]1`: > 4 mM (inactive); for `O=c1cnnc(N2CCCCC2)[nH]1`: > 4 mM (inactive); for `Cn1c(=O)[nH]c(=O)c2nsnc21`: > 4 mM (inactive). The same measure for `O=C1CNc2cc(C(=O)O)ccc2N1`: > 4 mM (inactive); for `COC(=O)C(O)[C@@H]1C2(C)C(=O)[C@@H](CC3=C4CC(=O)O[C@@H](c5ccoc5)[C@]4(C)CCC32)[C@H](OC(C)=O)C1(C)C` (some centres not stated): > 4 mM (inactive); for `CC1=NN2C(=N)/C(=C\c3cccs3)C(=O)N=C2S1`: > 4 mM (inactive). Regarding `Oc1ccccc1N1CCCC1`, the Kd is > 4 mM (inactive). For `O=C(Nc1ccc(OCC(=O)N2CCOCC2)cc1)c1ccccc1Cl`, the Kd is > 4 mM (inactive). For `Nc1ncnc2c1ncn2[C@@H]1O[C@H](CO)[C@@H](O)[C@H]1O` the value was > 4 mM (inactive); for `CC(=O)Oc1ccc(-c2cc(=O)c3c(OC(C)=O)cc(OC(C)=O)cc3o2)cc1`, > 4 mM (inactive); for `Oc1ccc(-n2cncn2)cc1`, > 4 mM (inactive). For `COC(=O)c1ccc(N2CCCC2)nc1` the value was > 4 mM (inactive); for `CC1(C(=O)O)CC2C=CC1C2` (configuration not stated), > 4 mM (inactive); for `c1coc(-c2nc(-c3ccncc3)no2)c1`, > 4 mM (inactive). The same measure for `CC1(C)Cc2cccc(C(=O)O)c2O1`: > 4 mM (inactive); for `CC(=O)OC1CC[C@@]2(C)C(CCC3C2CC[C@]2(C)C(C4=CC(=O)OC4)C(OC(C)=O)CC32O)C1` (some centres not stated): > 4 mM (inactive); for `O=C1C2C3C=CC(C3)C2C(=O)N1c1nccs1` (configuration not stated): > 4 mM (inactive). Take `COC(=O)c1scc(C)c1N`: the Kd was > 4 mM (inactive). For `C[C@]12CCC3C(CC[C@]4(O)C[C@@H](O)CC[C@]34C=O)[C@@]1(O)CCC2C1=CC(=O)OC1` (some centres not stated) the value was > 4 mM (inactive); for `C=C1CCC2C(CC2(C)C)C(=C)CC/C1=N/O` (configuration not stated), > 4 mM (inactive). Take `C/C=C1\[C@H]2C=C(C)C[C@]1(N)c1ccc(=O)[nH]c1C2`: the Kd was > 4 mM (inactive). The same measure for `O=C(c1ccccc1)c1ccccc1C(=O)N1CCCC1`: > 4 mM (inactive); for `CCOC(=O)c1c(C)nc2ncccn12`: > 4 mM (inactive).

For `Cc1nnc(Nc2cccnc2)[nH]c1=O`, the Kd was > 4 mM (inactive).

For `Cc1cccc(C(C)C)c1NC(=O)c1cccnc1`, the Kd is > 4 mM (inactive). In the case of `COC(=O)c1cccnc1Oc1ccccc1`, the Kd is > 4 mM (inactive). The same measure for `COc1cc2[nH]c(=S)n(C)c(=O)c2cc1OC`: > 4 mM (inactive); for `COc1ccccc1-c1c(C)nn2c(C)c(C(C)=O)cnc12`: > 4 mM (inactive).

As for `O=C1CCc2ccccc2CN1`, the Kd was > 4 mM (inactive).

For the molecule `CCOc1cccc(C(=O)c2ccc(O)c(O)c2O)c1`, the Kd was > 4 mM (inactive).

As for `C[C@H]1C(=O)CCC2[C@]3(C)CC[C@@]4(C)C5CC(C)(C)CC[C@]5(C)CC[C@]4(C)C3CC[C@@]21C` (some centres not stated), the Kd is > 4 mM (inactive).

For `Cn1cnc([N+](=O)[O-])c1Sc1ncnc2nc[nH]c12`, the Kd was > 4 mM (inactive). For `CCNC(=O)CC1Nc2ccccc2NC1=O` (configuration not stated) the value was > 4 mM (inactive); for `CC(=O)N1CCc2ccccc2C1CC(=O)O` (configuration not stated), > 4 mM (inactive); for `CCOC(=O)c1ccc2c(c1)nnn2C`, > 4 mM (inactive).

With `O=S1(=O)CCC(NC(=S)N2CCOCC2)C1` (configuration not stated), the Kd was 0.0474 mM. The same measure for `NCc1nnnn1-c1ccccc1`: > 4 mM (inactive); for `Cc1cc(C(=O)NCc2cccnc2)cs1`: > 4 mM (inactive).

With `Cc1noc(C)c1C(=O)Nc1cccnc1`, the Kd was > 4 mM (inactive).

As to `O=C(Oc1ccc(-c2nnco2)cc1)N1CCCCC1`, the Kd is > 4 mM (inactive). For `O=C(O)c1cn(-c2ccccc2)nc1-c1cccnc1` the value was > 4 mM (inactive); for `Cc1cc(=O)cc(C)n1-c1ccccc1N1CCOCC1`, > 4 mM (inactive). For `COc1cc(CNC(=O)CCCC/C=C/C(C)C)ccc1O` the value was > 4 mM (inactive).

With `CC1(C)C(=O)C=C[C@@]2(C)C1C[C@@H](O)[C@]1(C)C2CC[C@@]2(C)[C@H](c3ccoc3)OC(=O)[C@H]3O[C@]321` (some centres not stated), the Kd is > 4 mM (inactive). For `COc1ccccc1NS(=O)(=O)c1c[nH]c(=O)[nH]c1=O` the value was > 4 mM (inactive); for `O=C1CCC(c2cccs2)=NN1`, > 4 mM (inactive).

`CC1(C)CC23C(=O)CCC(O)C2(C)CCC13` (configuration not stated): the Kd is > 4 mM (inactive). The same measure for `CC(=O)NC(=S)Nc1ccccc1C`: > 4 mM (inactive). Take `CCN1CCc2c(sc(N)c2C(N)=O)C1`: the Kd was > 4 mM (inactive).

As for `Cc1cc(=O)[nH]c2ccccc12`, the Kd was > 4 mM (inactive). For `O=C(O)C1NCCc2ccccc21` (configuration not stated) the value was > 4 mM (inactive). As to `COC(=O)C1[C@H]2C[C@H]3c4[nH]c5ccccc5c4CCN3C[C@@H]2CC[C@@H]1O` (some centres not stated), the Kd is > 4 mM (inactive). In the case of `C[N+](C)(C)CC(=O)[O-]`, the Kd was > 4 mM (inactive).

With `Cc1nnsc1-c1onc(C)c1C(=O)O`, the Kd is > 4 mM (inactive).

Regarding `Cc1noc(-c2ccccc2)c1C(=O)O`, the Kd was > 4 mM (inactive). For `COc1cc(S(=O)(=O)N(C)C)ccc1F` the value was > 4 mM (inactive); for `CC(=O)OCC(=O)[C@@]1(O)CCC2C3CC[C@@H]4C[C@H](O)CC[C@]4(C)C3C(=O)C[C@@]21C` (some centres not stated), > 4 mM (inactive); for `O=C1CCC(C(=O)NCc2cccnc2)N1` (configuration not stated), > 4 mM (inactive).

As for `COC(=O)N1CCN(c2ccc(OC)cc2)CC1`, the Kd is > 4 mM (inactive). The same measure for `O=[n+]1cc(-c2ccccc2)n([O-])c2c1CCC2`: > 4 mM (inactive); for `Cc1ccc(C(=O)Nn2cnnc2)c(Cl)c1`: > 4 mM (inactive); for `Cn1c(=O)[nH]c2nc[nH]c2c1=O`: > 4 mM (inactive). For `COc1cc([C@@H]2c3cc4c(cc3[C@H](OC(C)=O)[C@H]3COC(=O)[C@H]23)OCO4)cc(OC)c1OC` the value was > 4 mM (inactive). On to `Oc1ccccc1N=Cc1cccnc1`, for which the Kd is > 4 mM (inactive).

For the molecule `S=C(Nc1ccc2nccnc2c1)N1CCOCC1`, the Kd is > 4 mM (inactive).

On to `O=C(CO)N/N=C/c1ccccc1F`, for which the Kd was > 4 mM (inactive). For `Cc1cc(NC(=O)NCCCSc2nncn2C)no1` the value was > 4 mM (inactive); for `Cc1nn(C)c2sc(CO)cc12`, > 4 mM (inactive); for `O=C(NCCCSc1ncccn1)Nc1ncccn1`, > 4 mM (inactive). For `C[C@@H]1O[C@@H](O[C@H]2[C@@H](Oc3cc(O)c4c(c3)O[C@H](c3ccc(O)cc3)CC4=O)O[C@H](CO)[C@@H](O)[C@@H]2O)[C@H](O)[C@H](O)[C@H]1O` the value was > 4 mM (inactive); for `CC(C)=CCOc1cc2oc(=O)ccc2cc1O`, > 4 mM (inactive); for `Nc1nc(SCc2ccc3c(c2)OCO3)n[nH]1`, > 4 mM (inactive). With `C[C@]12CCC3C(CC[C@H]4C[C@@H](O)CC[C@]34C)C1CCC2=O` (some centres not stated), the Kd is > 4 mM (inactive). The same measure for `O=c1cnnc(NCc2ccc(F)cc2)[nH]1`: > 4 mM (inactive); for `O=C(CS(=O)(=O)c1ccccc1)Nc1nccs1`: > 4 mM (inactive); for `Cc1ccc(-n2[nH]c(C)cc2=O)cc1`: > 4 mM (inactive).
